According to patent US20220226338A1, “Methods of Treating Cancer Using CHK1 Inhibitors” (Sierra Oncology, Inc., priority 2019, published 2022):
Where two headings read alike, the source gives them in different places.

Tests used:
cancer xenograft models = test: In vivo efficacy studies in xenograft, PDX and syngeneic models; set-up: species or system mouse
Experimental: A program of in vivo efficacy studies was performed to assess the activity of SRA737 in combination with genotoxic chemotherapy and targeted agents, and as monotherapy.
One of these models also carried a MYCN amplification. A fourth HGSOC PDX model with partial resistance to PARPi was also sensitive to high dose SRA737 monotherapy.

[1] = SRA737 plasma and tumor concentrations in HT29 xenograft model; assay type: in vivo, mice; conditions: mouse, plasma, oral, read-out: plasma concentration with anti-tumor activity in preclinical efficacy models
Experimental: The effect of SRA737 on Gemcitabine induced CHK1 S296 autophosphorylation was assessed as described in Walton et al. (Oncotarget. 2016 January 19; 7(3): 2329-2342), herein incorporated by reference for all it teaches. Briefly, mice bearing HT29 tumor xenografts were administered (i) vehicle control or (ii) gemcitabine (100 mg/kg in saline, IV) or (iii) a combination of SRA737 (12.5, 25, 50 or 100 mg/kg in DTPW, oral) and gemcitabine (100 mg/kg) with SRA737 administered 24 hours following gemcitabine administration (n=3 per time point per treatment). […] Exposure in the tumor was greater than 10-fold higher than in plasma. The circulating plasma concentration at this 24-hour timepoint corresponded to a free drug concentration of approximately 6 nM (2 ng/mL) based on plasma protein binding in mice of 94%.

Single dose PK, dog = assay type: in vivo; conditions: Dog oral 5 mg/kg single dose
Text: Several studies have been conducted to evaluate the PK properties of SRA737, such as the absorption (in vitro permeability assays and in vivo PK following IV and oral administration), distribution (in vivo tissue distribution and in vitro plasma protein binding) and metabolism (in vitro hepatocyte and CYP inhibition and induction studies) of SRA737.
(§1) The PK of SRA737 have been determined in the mouse, rat, dog and monkey following oral and IV administration (Table 3). […] An acceptable terminal elimination t1/2 was also observed in each species. […] The plasma protein binding of SRA737 at 1 and 10 μM was examined in mouse, minipig, monkey and human plasma using ultracentrifugation and in dog plasma (10 μM) using rapid equilibrium dialysis.

plasma protein = test: Plasma protein binding, ultracentrifugation, minipig plasma; assay type: in vitro ADME
Experimental: as §1

[2] = system: cryopreserved hepatocytes; test: Stability and metabolites in cryopreserved human hepatocytes; assay type: in vitro ADME
Experimental: (§2) The formation of SRA737-related metabolites was determined in cryopreserved hepatocytes from human, mouse, rat, dog, minipig and monkey samples after incubation with SRA737 at a nominal concentration of 10 μM for up to 4 hours. […] In the human hepatocyte preparation, approximately 67% of the parent remained after 4 hours of incubation compared to 75% and 7% in the rat and minipig preparations, respectively. Eight human SRA737 metabolites were observed. All SRA737 metabolites formed by human hepatocytes were also formed by monkey hepatocytes. Six metabolites were present at equal or greater abundance in the monkey.

[3] = system: cryopreserved hepatocytes; test: Rank order of hepatocyte stability across species; assay type: in vitro ADME, human, mouse, rat, dog, minipig and monkey; conditions: 10 μM, up to 4 hours
Experimental: as §2

[4] = mouse, in vivo
Experimental: Reference source not found.6.
These findings were reversible on cessation of drug administration.
The MTD was 75 mg/kg/day (225 mg/m^2/day) in the mouse and the HNSTD was […] (350 mg/m^2/day) in the minipig.

[5] = Three-cycle combination toxicity study with gemcitabine and cisplatin; assay type: in vivo, mouse; conditions: mice; SRA737 with IV gemcitabine and cisplatin, intermittent schedule over 18 days; high dose triplet group
Text: Clinical combination of SRA737 and gemcitabine in some cases therefore elicited exacerbated hematological and GI toxicities.

[6] = SRA737 monotherapy clinical study (SRA737-01), pharmacokinetics; assay type: in vivo, human
Experimental: A Phase 1 clinical trial was conducted in ‘all comers,’ i.e. no genetic selection was performed, to establish safety, tolerability and pharmacokinetics (“Dose Escalation Phase”). Cohorts consisting initially of a single subject received escalating doses of SRA737, starting in Cohort 1 with 20 mg/day administered orally on a continuous daily dosing schedule in 28 day cycles. the dose was escalated until the maximum tolerated dose (MTD) was identified.
Cmin was calculated at 1000 mg QD (411 ng/mL) and exceeded that determined in preclinical models to be effective. Doses ≥300 mg QD also exceeded the preclinical models to be effective.
A Dose Escalation phase employed an accelerated titration design starting at 20 mg SRA737, administered QD orally in 28-day cycles. Incremental dose escalations in single-subject cohorts were followed by a rolling-6 design once SRA737-related ≥Grade 2 toxicity was observed during Cycle 1.
The plasma pharmacokinetics of SRA737 were reproducible and generally dose concordant. […] All doses ≥300 mg QD also exceeded this threshold level.

N#Cc1cnc(Nc2cc(NCC3CNCCO3)c(C(F)(F)F)cn2)cn1 (stereo not shown) [SRA737, 5-[[4-[[morpholin-2-yl]methylamino]-5-(trifluoromethyl)-2-pyridyl]amino]pyrazine-2-carbonitrile]
synergy with gemcitabine and carboplatin (cancer xenograft models; Calu6 model, data not shown): Synergy
antitumor activity as a single agent (cancer xenograft models; HGSOC PDX models harboring CCNE1 amplifications accompanied by TP53 mutations, data not shown): Significant antitumor activity
synergy with low-dose gemcitabine (cancer xenograft models; HT29 (FIG. 5), OVCAR3 and SJSA-1 CDX models, PDX model of TNBC): Synergy was also observed
antitumor activity in combination with standard-dose gemcitabine (cancer xenograft models; HT29, SJSA-1, SW620, Calu6, KPC-1 and patient-derived bladder carcinoma xenograft models, data not shown): Significant, dose-dependent antitumor activity
synergy with irinotecan (cancer xenograft models; HT29 model, data not shown): Synergy
single agent efficacy (cancer xenograft models; OVCAR3, Eμ-Myc, MOLM-13, TH-MYC, MDA-MB-231, Renca and LL/2 models, data not shown): demonstrated single agent efficacy
sensitivity to high dose SRA737 monotherapy (cancer xenograft models; fourth HGSOC PDX model with partial resistance to PARPi): sensitive
antitumor activity in combination with a PD1/PD-L1 inhibitor (cancer xenograft models; syngeneic mouse models mTmG, MC38 and Pan02, data not shown): Significant antitumor activity
concentration at 24 h ([1]; equivalent of 100 nM): ~37.9 ng/mL
concentration at 24 h ([1]; mice, sustained for 24 hours, PK/PD benchmark): 100 nM
Foral (Single dose PK, dog): 86%
Percentage Bound (plasma protein; 1 μM): 85.2%
Percentage Free (plasma protein; 1 μM): 14.9%
Percentage Bound (plasma protein; 10 μM): 75.5%
Percentage Free (plasma protein; 10 μM): 24.5%
number of human SRA737 metabolites observed [2]: Eight
parent remaining ([2]; 10 μM, after 4 hours of incubation): approximately 67%
rank order of stability from most stable to least stable [3]: rat≈mouse>monkey˜human>>dog>>minipig
changes in reproductive organs [4]: changes in reproductive organs, particularly the testes, were also observed
dose-dependent toxicological findings [4]: bone marrow toxicity
additional finding in triple combination study [5]: reversible intestinal epithelial degeneration
CL/F ([6]; human, in vivo, 160 mg): 70.0 L/h
Vd/F ([6]; human, in vivo, 160 mg): 1390 L
CL/F ([6]; human, in vivo, 300 mg): 81.9 L/h
Vd/F ([6]; human, in vivo, 300 mg): 1020 L
t1/2 ([6]; human, in vivo, 300 mg): 8.6 h
CL/F ([6]; human, in vivo, 600 mg): 56.9 L/h
Vd/F ([6]; human, in vivo, 600 mg): 1090 L
AUC(0-t) ([6]; human, in vivo, 800 mg): 18500 ng·h/mL
CL/F ([6]; human, in vivo, 800 mg): 39.1 L/h
Cmax ([6]; human, in vivo, 800 mg): 1880 ng/mL
Vd/F ([6]; human, in vivo, 800 mg): 596 L
t1/2 ([6]; human, in vivo, 800 mg): 10.5 h
AUC0-24 h ([6]; human, in vivo, 1000 mg): 20270 ng·h/mL
CL/F ([6]; human, in vivo, 1000 mg): 44.9 L/h
Cmax ([6]; human, in vivo, 1000 mg): 2098 ng/mL
Vd/F ([6]; human, in vivo, 1000 mg): 704 L
CL/F ([6]; human, in vivo, 1300 mg): 38.6 L/h
Vd/F ([6]; human, in vivo, 1300 mg): 625 L
doses at which Cmin exceeded that effective in preclinical models ([6]; monotherapy): ≥ 300 mg QD
Cmin ([6]; monotherapy PK dose 160 mg (n = 1)): 31.7 ng/mL
Cmin ([6]; monotherapy PK dose 300 mg (n = 1)): 41.2 ng/mL
Cmin ([6]; monotherapy PK dose 600 mg (n = 4)): 129 ng/mL
Cmin ([6]; monotherapy PK dose 800 mg (n = 38)): 234 ng/mL
Cmin ([6]; monotherapy PK dose 1000 mg (n = 44-45)): 289 ng/mL
Cmin ([6]; monotherapy PK dose 1300 mg (n = 3)): 466 ng/mL
